Data taken from PMC9867436, “Drug Repurposing to Inhibit Histamine N-Methyl Transferase” (Molecules, 2023).
Read-outs that look alike come from different tables or passages of the source.

Target: T1, Histamine N-Methyltransferase (HNMT) (Homo sapiens, UniProt P50135)
T1 construct: Recombinant Human Histamine N-Methyltransferase (rhHNMT, R&D Systems 7637-MT)
Assay: fluorescence assay of histamine methylation by recombinant HNMT (ex […]/em […] nm)
Assay type: biochemical

T1 sequence (P50135 whole entry): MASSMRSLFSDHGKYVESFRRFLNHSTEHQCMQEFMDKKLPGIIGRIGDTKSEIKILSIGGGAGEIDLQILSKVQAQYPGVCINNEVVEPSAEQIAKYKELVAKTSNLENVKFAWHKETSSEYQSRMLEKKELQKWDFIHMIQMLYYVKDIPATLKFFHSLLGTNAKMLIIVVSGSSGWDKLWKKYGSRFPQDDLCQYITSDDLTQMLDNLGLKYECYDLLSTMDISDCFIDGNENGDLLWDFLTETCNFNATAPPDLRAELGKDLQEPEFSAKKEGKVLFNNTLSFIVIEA

| Compound | IC50 (read-out: IC50) | IC50 |
| --- | --- | --- |
| N#Cc1ccc2[nH]cc(CCCCN3CCN(c4ccc5oc(C(N)=O)cc5c4)CC3)c2c1 [vilazodone] | 45 µM |  |
| CN1C[C@H](C(=O)N[C@]2(C)O[C@@]3(O)[C@@H]4CCCN4C(=O)[C@H](Cc4ccccc4)N3C2=O)C[C@@H]2c3cccc4[nH]cc(c34)C[C@H]21 [dihydroergotamine] |  | 72.9 µM |
| Cc1nc(N)nc(N)c1-c1ccc(Cl)c(Cl)c1 [metoprine, reference compound] | 0.0667 µM |  |
